# Results from US8178506B2, “Oligomeric compounds and compositions for use in modulation of small non-coding RNAs” (Regulus Therapeutics Inc., priority 2003, dated 2012).
# In the oligonucleotide strings, read from the 5' end, every base follows the letter of its sugar. An asterisk marks phosphorothioate; unmarked linkages are phosphodiester. Other units and linkages are bracketed, terminal groups are in braces. A string of capitals states the bases alone. e = 2'-O-(2-methoxyethyl) (MOE); [5mC] = 5-methylcytosine; d = 2'-deoxy (DNA)
# System: mir-15a pri-miRNA
# Test: mir-15a pri-miRNA expression in HepG2 cells (real-time RT-PCR)
# Type: cell-based, human
# Details: HepG2, 100 nM
# Method: Using the real-time RT-PCR methods described in Example 19, the expression levels of the mir-15a pri-miRNA were compared in HepG2 cells treated with a nested series of chimeric gapmer oligomeric compounds, targeting and spanning the entire length of the mir-15a pri-miRNA; these compounds are shown in Table 45, below. […] All cytidine residues are 5-methylcytidines. Using the transfection methods described herein, HepG2 cells were treated with 100 nM of each of these gapmer oligomeric compounds. Total RNA was isolated from HepG2 cells by lysing cells in 1 mL TRIZOL™ (Invitrogen) using the manufacturer's recommended protocols. Real-time RT-PCR analysis was performed using a primer/probe set specific for the mir-15a pri-miRNA molecule to assess the effects of these compounds on expression of the mir-15a pri-miRNA molecule. ISIS 339317 ([…]; SEQ ID NO.: 885) was used as the forward primer, ISIS 339318 (TGGCCTGCACCTTTTCAAA; SEQ ID NO.: 886) was used as the reverse primer, and ISIS 339319 ([…]; SEQ ID NO.: 887) was used as the probe. Total RNA was quantified using RiboGreen™ RNA quantification reagent (Molecular Probes, Inc. Eugene, Oreg.), expression levels observed for each target are normalized to 5.8S rRNA, and values are expressed relative to the untreated control. Inhibition of expression of the mir15a pri-miRNA by these gapmer oligomeric compounds is expressed as a percentage of RNA levels in untreated control cells.
row,Substance,expression of the mir-15a pri-miRNA molecule
1,ISIS 347975: 5-10-5 2′-MOE gapmer PS; targets mir-15a pri-miRNA (antisense eT*eT*eT*eT*eG*dA*dG*dG*d[5mC]*dA*dG*d[5mC]*dA*d[5mC]*dA*eA*eT*eA*eT*eG),significant inhibition of expression of the mir-15a pri-miRNA molecule
2,ISIS 347980: 5-10-5 2′-MOE gapmer PS; targets mir-15a pri-miRNA (antisense eA*eG*eA*eT*e[5mC]*dA*dG*dA*dT*d[5mC]*d[5mC]*dT*dT*dG*dT*eA*eT*eT*eT*eT),significant inhibition of expression of the mir-15a pri-miRNA molecule
3,ISIS 347970: 5-10-5 2′-MOE gapmer PS; targets mir-15a pri-miRNA (antisense eA*eT*eA*eT*eG*dG*d[5mC]*d[5mC]*dT*dG*d[5mC]*dA*d[5mC]*d[5mC]*dT*eT*eT*eT*e[5mC]*eA),significant inhibition of expression of the mir-15a pri-miRNA molecule
4,ISIS 347964: 5-10-5 2′-MOE gapmer PS; targets mir-15a pri-miRNA (antisense eT*eA*eT*eA*eA*d[5mC]*dA*dT*dT*dG*dA*dT*dG*dT*dA*eA*eT*eA*eT*eG),significant inhibition of expression of the mir-15a pri-miRNA molecule
5,ISIS 347968: 5-10-5 2′-MOE gapmer PS; targets mir-15a pri-miRNA (antisense e[5mC]*e[5mC]*eT*eG*e[5mC]*dA*d[5mC]*d[5mC]*dT*dT*dT*dT*d[5mC]*dA*dA*eA*eA*eT*e[5mC]*e[5mC]),significant inhibition of expression of the mir-15a pri-miRNA molecule
6,ISIS 347973: 5-10-5 2′-MOE gapmer PS; targets mir-15a pri-miRNA (antisense eG*eG*e[5mC]*eA*eG*d[5mC]*dA*d[5mC]*dA*dA*dT*dA*dT*dG*dG*e[5mC]*e[5mC]*eT*eG*e[5mC]),stimulate an increase in expression levels of the mir-15a pri-miRNA
7,ISIS 347966: 5-10-5 2′-MOE gapmer PS; targets mir-15a pri-miRNA (antisense eT*eG*e[5mC]*eT*eA*d[5mC]*dT*dT*dT*dA*d[5mC]*dT*d[5mC]*d[5mC]*dA*eA*eG*eG*eT*eT),significant inhibition of expression of the mir-15a pri-miRNA molecule
8,ISIS 347983: 5-10-5 2′-MOE gapmer PS; targets mir-15a pri-miRNA (antisense eA*eA*eA*eT*eA*dT*dA*dT*dT*dT*dT*d[5mC]*dT*dT*d[5mC]*eA*eG*eA*eA*eG),significant inhibition of expression of the mir-15a pri-miRNA molecule
9,ISIS 347977: 5-10-5 2′-MOE gapmer PS; targets mir-15a pri-miRNA (antisense eT*eT*eG*eT*eA*dT*dT*dT*dT*dT*dG*dA*dG*dG*d[5mC]*eA*eG*e[5mC]*eA*e[5mC]),stimulate an increase in expression levels of the mir-15a pri-miRNA
10,ISIS 347967: 5-10-5 2′-MOE gapmer PS; targets mir-15a pri-miRNA (antisense eG*e[5mC]*eA*e[5mC]*e[5mC]*dT*dT*dT*dT*d[5mC]*dA*dA*dA*dA*dT*e[5mC]*e[5mC]*eA*e[5mC]*eA),stimulate an increase in expression levels of the mir-15a pri-miRNA

# Same assay, conditions: HepG2 cells, 100 nM, real-time RT-PCR
row,Substance,Expression of mir-15a pri-miRNA (% UTC)
1,347970 (eA*eT*eA*eT*eG*dG*d[5mC]*d[5mC]*dT*dG*d[5mC]*dA*d[5mC]*d[5mC]*dT*eT*eT*eT*e[5mC]*eA; antisense) [compound 347970],2.2
2,347979 (eA*eG*eA*eT*e[5mC]*d[5mC]*dT*dT*dG*dT*dA*dT*dT*dT*dT*eT*eG*eA*eG*eG; antisense) [compound 347979],74.9
3,347964 (eT*eA*eT*eA*eA*d[5mC]*dA*dT*dT*dG*dA*dT*dG*dT*dA*eA*eT*eA*eT*eG; antisense) [compound 347964],13.7
4,347982 (eT*eT*e[5mC]*eA*eG*dA*dA*dG*dA*dT*d[5mC]*dA*dG*dA*dT*e[5mC]*e[5mC]*eT*eT*eG; antisense) [compound 347982],82.2
5,347967 (eG*e[5mC]*eA*e[5mC]*e[5mC]*dT*dT*dT*dT*d[5mC]*dA*dA*dA*dA*dT*e[5mC]*e[5mC]*eA*e[5mC]*eA) [compound 347967],152.3
6,347983 (eA*eA*eA*eT*eA*dT*dA*dT*dT*dT*dT*d[5mC]*dT*dT*d[5mC]*eA*eG*eA*eA*eG; antisense) [compound 347983],13.0
7,347971 (eA*e[5mC]*eA*eA*eT*dA*dT*dG*dG*d[5mC]*d[5mC]*dT*dG*d[5mC]*dA*e[5mC]*e[5mC]*eT*eT*eT; antisense) [compound 347971],92.8
8,347974 (eT*eG*eA*eG*eG*d[5mC]*dA*dG*d[5mC]*dA*d[5mC]*dA*dA*dT*dA*eT*eG*eG*e[5mC]*e[5mC]; antisense) [compound 347974],98.1
9,347965 (eG*e[5mC]*eT*eA*e[5mC]*dT*dT*dT*dA*d[5mC]*dT*d[5mC]*d[5mC]*dA*dA*eG*eG*eT*eT*eT; antisense) [compound 347965],86.0
10,347980 (eA*eG*eA*eT*e[5mC]*dA*dG*dA*dT*d[5mC]*d[5mC]*dT*dT*dG*dT*eA*eT*eT*eT*eT; antisense) [compound 347980],3.6
11,347975 (eT*eT*eT*eT*eG*dA*dG*dG*d[5mC]*dA*dG*d[5mC]*dA*d[5mC]*dA*eA*eT*eA*eT*eG; antisense) [compound 347975],9.2
12,347977 (eT*eT*eG*eT*eA*dT*dT*dT*dT*dT*dG*dA*dG*dG*d[5mC]*eA*eG*e[5mC]*eA*e[5mC]) [compound 347977],111.3
13,347966 (eT*eG*e[5mC]*eT*eA*d[5mC]*dT*dT*dT*dA*d[5mC]*dT*d[5mC]*d[5mC]*dA*eA*eG*eG*eT*eT; antisense) [compound 347966],39.2
14,347969 (eT*eG*eG*e[5mC]*e[5mC]*dT*dG*d[5mC]*dA*d[5mC]*d[5mC]*dT*dT*dT*dT*e[5mC]*eA*eA*eA*eA; antisense) [compound 347969],39.5
15,347968 (e[5mC]*e[5mC]*eT*eG*e[5mC]*dA*d[5mC]*d[5mC]*dT*dT*dT*dT*d[5mC]*dA*dA*eA*eA*eT*e[5mC]*e[5mC]; antisense) [compound 347968],8.4
16,347976 (eT*eA*eT*eT*eT*dT*dT*dG*dA*dG*dG*d[5mC]*dA*dG*d[5mC]*eA*e[5mC]*eA*eA*eT; antisense) [compound 347976],73.0
17,347973 (eG*eG*e[5mC]*eA*eG*d[5mC]*dA*d[5mC]*dA*dA*dT*dA*dT*dG*dG*e[5mC]*e[5mC]*eT*eG*e[5mC]) [compound 347973],143.3
18,347978 (eT*e[5mC]*e[5mC]*eT*eT*dG*dT*dA*dT*dT*dT*dT*dT*dG*dA*eG*eG*e[5mC]*eA*eG; antisense) [compound 347978],51.1
19,347972 (eA*eG*e[5mC]*eA*e[5mC]*dA*dA*dT*dA*dT*dG*dG*d[5mC]*d[5mC]*dT*eG*e[5mC]*eA*e[5mC]*e[5mC]; antisense) [compound 347972],98.6
